Data reported in patent publication US8466167B2, “Compounds and compositions as TLR activity modulators” (IRM LLC, priority 2008, dated 2013).

biological target: T1, human TLR8 (Homo sapiens, UniProt Q9NR97); experiment: Reporter gene assay, HEK293-TLR8 (NF-kB-driven luciferase); type: cell-based; conditions: TLR-8 stimulation; read-out: Human TLR-8 EC50
T1 construct: expressed in transfected cells; host or cells: HEK 293
T1 sequence (Q9NR97 27-1041): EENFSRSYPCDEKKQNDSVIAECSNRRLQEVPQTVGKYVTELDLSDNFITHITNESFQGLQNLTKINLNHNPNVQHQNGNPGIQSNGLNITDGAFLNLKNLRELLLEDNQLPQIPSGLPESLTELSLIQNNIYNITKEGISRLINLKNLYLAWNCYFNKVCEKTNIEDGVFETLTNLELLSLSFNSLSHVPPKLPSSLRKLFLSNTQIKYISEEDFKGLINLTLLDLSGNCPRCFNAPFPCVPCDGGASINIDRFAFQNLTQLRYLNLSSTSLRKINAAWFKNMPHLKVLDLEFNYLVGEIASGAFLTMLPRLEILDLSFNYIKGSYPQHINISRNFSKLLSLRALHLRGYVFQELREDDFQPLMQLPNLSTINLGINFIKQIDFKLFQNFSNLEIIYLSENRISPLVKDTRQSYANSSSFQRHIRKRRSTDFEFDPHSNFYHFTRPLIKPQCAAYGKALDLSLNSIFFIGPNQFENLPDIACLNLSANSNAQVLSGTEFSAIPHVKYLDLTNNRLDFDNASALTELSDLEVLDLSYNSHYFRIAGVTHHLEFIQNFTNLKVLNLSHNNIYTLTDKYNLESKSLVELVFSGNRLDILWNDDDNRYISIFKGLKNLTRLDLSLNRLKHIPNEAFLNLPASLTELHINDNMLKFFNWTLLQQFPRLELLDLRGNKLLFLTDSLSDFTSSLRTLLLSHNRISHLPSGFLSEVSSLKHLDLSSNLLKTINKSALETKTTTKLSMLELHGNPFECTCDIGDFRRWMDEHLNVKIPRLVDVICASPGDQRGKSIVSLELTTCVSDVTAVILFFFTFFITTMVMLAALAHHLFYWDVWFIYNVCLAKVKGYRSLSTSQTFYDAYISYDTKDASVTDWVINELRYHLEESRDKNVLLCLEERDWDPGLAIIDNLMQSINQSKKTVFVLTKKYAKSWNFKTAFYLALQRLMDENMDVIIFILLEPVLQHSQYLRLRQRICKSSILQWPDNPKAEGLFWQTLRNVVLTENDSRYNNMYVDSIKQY
Experimental: (§1) Human embryonic kidney 293 (HEK 293) cells are stably transfected with human TLR7 or TLR8 and an NF-kB-driven luciferase reporter vector (pNifty-Luciferase). As a control assay, normal Hek293 transfected with pNifty-Luc are used. Cells are cultured in DMEM supplemented with 2 mM L-glutamine, 10% heart inactivated FBS, 1% penicillin and streptomycin, 2 μg/ml puromycin (InvivoGen #ant-pr-5) and 5 μg/ml of blasticidin (Invitrogen #46-1120). Bright-Glo™ Luciferase assay buffer and substrate are supplied by Promega #E263B and #E264B (assay substrate and buffer respectively). 384 well clear-bottom plates are supplied by Greiner bio-one (#789163-G) and are GNF custom bar-coded plates.
(§2) Cells are plated at 25,000 cells/well in 384-well plates in a final volume of 50 μl of media. Cells are allowed to adhere to the plates after overnight (18 hours) culture at 37° C. 5% CO2. Serially diluted experimental and positive control compounds are then dispensed to each well and incubated for 7 hours at 37° C. 5% CO2. Cells stimulated with DMSO alone also serve as negative controls. After the incubation, 30 μl of the pre-mix assay buffer and substrate buffer are added to each well according to manufacturer's instructions. The luminescence signal is read on a CLIPR machine with an integration time of 20 seconds per plate.
(§3) Dose response curves are generated for each compound and EC50 values were determined as the concentration that gives 50% of the maximal signal.

SMILES	EC50 [µM]
Cc1ccc2c(c1)nc(N)c1ncc(CCc3ccc(CN4CCCC4)cc3)cc12 [Example 177, 8-methyl-2-(4-(pyrrolidin-1-ylmethyl)phenethyl)benzo[f][1,7]naphthyridin-5-amine]	15
Cc1ccc2c(c1)nc(N)c1ncc(CCc3ccc(C(C)NCCN(C)C)cc3)cc12 (centres unmarked) [Example 186, N^1-(1-(4-(2-(5-amino-8-methylbenzo[f][1,7]naphthyridin-2-yl)ethyl)phenyl)ethyl)-N^2,N^2-dimethylethane-1,2-diamine]	11
Cc1ccc2c(c1)nc(N)c1ncc(CCc3ccc(C(C)NCCC(=O)O)cc3)cc12 (centres unmarked) [Example 187, 3-(1-(4-(2-(5-amino-8-methylbenzo[f][1,7]naphthyridin-2-yl)ethyl)phenyl)ethylamino)propanoic acid]	82
Cc1ccc2c(c1)nc(N)c1ncc(CCc3ccc(C(C)N4CCN(C)CC4)cc3)cc12 (centres unmarked) [Example 188, 8-methyl-2-(4-(1-(4-methylpiperazin-1-yl)ethyl)phenethyl)benzo[f][1,7]naphthyridin-5-amine]	> 100
Cc1ccc2c(c1)nc(N)c1ncc(CCc3ccc(C(C)NC(C)CN(C)C)cc3)cc12 (centres unmarked) [Example 189, N^2-(1-(4-(2-(5-amino-8-methylbenzo[f][1,7]naphthyridin-2-yl)ethyl)phenyl)ethyl)-N^1,N^1-dimethylpropane-1,2-diamine]	6.2
Cc1ccc2c(c1)nc(N)c1ncc(CCc3ccc(C(C)NCCc4ccncc4)cc3)cc12 (centres unmarked) [Example 190, 8-methyl-2-(4-(1-(2-(pyridin-4-yl)ethylamino)ethyl)phenethyl)benzo[f][1,7]naphthyridin-5-amine]	4.3
CCN(CC)CCNC(C)c1ccc(CCc2cnc3c(N)nc4cc(C)ccc4c3c2)cc1 (centres unmarked) [Example 191, N^1-(1-(4-(2-(5-amino-8-methylbenzo[f][1,7]naphthyridin-2-yl)ethyl)phenyl)ethyl)-N^2,N^2-diethylethane-1,2-diamine]	6
Cc1ccc2c(c1)nc(N)c1ncc(CCc3ccc(C(C)N4CCC(C(=O)O)C4)cc3)cc12 (centres unmarked) [Example 193, 1-(1-(4-(2-(5-amino-8-methylbenzo[f][1,7]naphthyridin-2-yl)ethyl)phenyl)ethyl)pyrrolidine-3-carboxylic acid]	24
Cc1ccc2c(c1)nc(N)c1ncc(CCc3ccc(C(C)N4CCC(O)C4)cc3)cc12 (centres unmarked) [Example 195, 1-(1-(4-(2-(5-amino-8-methylbenzo[f][1,7]naphthyridin-2yl)ethyl)phenyl)ethyl)pyrrolidin-3-ol]	5.3
Cc1ccc2c(c1)nc(N)c1ncc(CCc3ccc(C(C)(C)N)cc3)cc12 [Example 196, 2-(4-(2-aminopropan-2-yl)phenethyl)-8-methylbenzo[f][1,7]naphthyridin-5-amine]	2.6

biological target: T2, human TLR7 (Homo sapiens, UniProt Q9NYK1); experiment: Reporter gene assay, HEK293-TLR7 (NF-kB-driven luciferase); type: cell-based; conditions: HEK293-TLR7; read-out: EC50 in HEK293-TLR7 assay
T2 construct: expressed in transfected cells; host or cells: HEK 293
T2 sequence (Q9NYK1 27-1049): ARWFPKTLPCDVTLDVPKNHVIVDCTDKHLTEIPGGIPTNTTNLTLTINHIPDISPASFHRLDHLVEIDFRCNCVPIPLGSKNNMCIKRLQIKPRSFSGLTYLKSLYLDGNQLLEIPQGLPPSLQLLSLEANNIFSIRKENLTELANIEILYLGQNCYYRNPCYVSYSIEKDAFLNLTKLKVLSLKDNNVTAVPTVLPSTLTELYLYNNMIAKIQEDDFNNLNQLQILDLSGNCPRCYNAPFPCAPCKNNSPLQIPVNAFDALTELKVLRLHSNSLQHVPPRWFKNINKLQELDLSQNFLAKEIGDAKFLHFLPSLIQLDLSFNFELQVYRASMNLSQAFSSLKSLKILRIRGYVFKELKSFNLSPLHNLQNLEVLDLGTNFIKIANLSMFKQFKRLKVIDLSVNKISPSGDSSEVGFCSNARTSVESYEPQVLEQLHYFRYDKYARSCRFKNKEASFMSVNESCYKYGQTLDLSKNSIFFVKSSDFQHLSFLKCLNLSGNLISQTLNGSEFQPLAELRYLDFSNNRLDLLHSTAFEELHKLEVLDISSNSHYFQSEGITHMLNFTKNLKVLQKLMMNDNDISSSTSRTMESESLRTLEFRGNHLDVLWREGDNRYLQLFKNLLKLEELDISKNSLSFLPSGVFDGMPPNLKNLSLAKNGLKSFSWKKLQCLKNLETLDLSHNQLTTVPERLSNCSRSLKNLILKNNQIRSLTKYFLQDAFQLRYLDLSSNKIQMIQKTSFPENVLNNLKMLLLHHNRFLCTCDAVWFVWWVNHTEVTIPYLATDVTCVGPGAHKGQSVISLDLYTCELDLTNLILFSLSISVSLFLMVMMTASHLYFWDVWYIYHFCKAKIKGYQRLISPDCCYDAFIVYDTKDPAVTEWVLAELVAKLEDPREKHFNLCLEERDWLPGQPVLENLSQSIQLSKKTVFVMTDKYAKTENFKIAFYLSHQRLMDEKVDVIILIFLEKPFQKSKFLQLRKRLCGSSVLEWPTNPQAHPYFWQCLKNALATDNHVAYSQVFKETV
Experimental: as §1, §2, §3

SMILES	EC50 [µM]
Nc1nc2ccccc2c2ccc(=O)[nH]c12 [Example 15, 5-aminobenzo[f][1,7]naphthyridin-3(4H)-one]	24.1

same assay, conditions: TLR-7 stimulation; read-out: Human TLR-7 EC50

SMILES	EC50 [µM]
Cc1ccc2c(c1)nc(N)c1ncc(CCc3ccc4[nH]ccc4c3)cc12 [Example 44, 2-(2-(1H-indol-5-yl)ethyl)-8-methylbenzo[f][1,7]naphthyridin-5-amine]	0.107
Cc1ccc2c(c1)nc(N)c1ncc(CCc3ccc(Oc4ccccc4)cc3)cc12 [Example 46, 8-methyl-2-(4-phenoxyphenethyl)benzo[f][1,7]naphthyridin-5-amine]	0.347
COC(=O)CCc1ccc(CCc2cnc3c(N)nc4cc(C)ccc4c3c2)cc1 [Example 61, methyl 3-(4-(2-(5-amino-8-methylbenzo[f][1,7]naphthyridin-2-yl)ethyl)phenyl)propanoate]	0.582
Cc1ccc2c(c1)nc(N)c1ncc(CCc3ccc(CCCO)cc3)cc12 [Example 62, 3-(4-(2-(5-amino-8-methylbenzo[f][1,7]naphthyridin-2-yl)ethyl)phenyl)propan-1-ol]	0.035
Cc1ccc2c(c1)nc(N)c1ncc(CCc3ccc(CCC(C)(C)O)cc3)cc12 [Example 63, 4-(4-(2-(5-amino-8-methylbenzo[f][1,7]naphthyridin-2-yl)ethyl)phenyl)-2-methylbutan-2-ol]	0.024
CCN1CCN(C(=O)c2ccc(CCc3cnc4c(N)nc5cc(C)ccc5c4c3)c(C)c2)CC1 [Example 126, (4-(2-(5-amino-8-methylbenzo[f][1,7]naphthyridin-2-yl)ethyl)-3-methylphenyl)(4-ethylpiperazin-1-yl)methanone]	0.275
CCCOC(=O)Oc1ccc(CCc2cnc3c(N)nc4cc(C)ccc4c3c2)cc1 [Example 138, 4-(2-(5-amino-8-methylbenzo[f][1,7]naphthyridin-2-yl)ethyl)phenyl propyl carbonate]	0.213
Cc1ccc2c(c1)nc(N)c1ncc(CCc3ccc(OCCN4CCOCC4)cc3C)cc12 [Example 147, 8-methyl-2-(2-methyl-4-(2-morpholinoethoxy)phenethyl)benzo[f][1,7]naphthyridin-5-amine]	0.014
COc1ccc(CCc2cnc3c(N)nc4cc(C)ccc4c3c2)cc1OC [Example 178, 2-(3,4-dimethoxyphenethyl)-8-methylbenzo[f][1,7]naphthyridin-5-amine]	0.562
